{"source": "patent US20130079345A1", "about": "“[…] ACTIVE DISUBSTITUTED TRIAZINE DERIVATIVES” (BAYER INTELLECTUAL PROPERTY GMBH, priority 2010, published 2013)", "key": {"[1]": {"tested_on": "NF-kappaB reporter gene activation in HEK293 cells", "experiment": "NF-kappaB reporter assay", "assay_type": "cell-based", "settings": "Homo sapiens, 20 ng/ml TNF alpha, 5 h", "procedure": "Cells were maintained in RPMI cell culture medium+glutamine (PAN Biotech GmbH, Aidenbach, Germany) supplemented with 10% fetal calf serum (PAA Laboratories GmbH, Pasching, Austria) and grown at 37° C., 5% CO2. HEK293 cells grown to 50% confluence were transfected with the Amaxa® Cell Line Nucleofector® Kit V (Lonza, Basel, Switzerland, catalog #VCA-1003). Transfections were performed according to manufacturer's optimized protocol for transfection of HEK293 cells. In brief, 2×10^5 cells were transfected with 5 μg highly purified plasmid DNA. Cells were transfected with a NF-kappa B reporter plasmid (pNFkBluc), pTALluc for control, or pMAXGFP for transfection control. After transfection, cells were taken up in 500 μL RPMI1640 cell culture medium, incubated for 1 h at 37° C., and 4.5 ml DMEM without phenol red were added per transfection. Transfected cells were seeded in 96 well plates (Greiner Bio-One, Frickenhausen, Germany, catalog #655098) with 100 μL cell suspension per well and incubated for 48 h. To each well, 100 μL DMEM with 2× concentrated compound diluted from 10 mM DMSO stocks, or 100 μL DMEM with 0.4% DMSO for control wells, was added. The compounds of general formula (I) summarized in Table 6 were used in this assay. Cells were stimulated with 20 ng/ml TNF alpha, and plates were incubated for 5 h at 37° C./5% CO2. Cell culture supernatants were removed to leave 100 μl medium per well, followed by addition of 100 μl Bright Glo luciferase assay reagent (Promega, Madison, Wis., USA, catalog #E2620), and shaking for 5 minutes in the dark. Luminescence was measured with a Victor Photospectrometer (Perkin Elmer, Waltham, Mass., USA). […], values were calculated with the software Excel Fit (IDBS, Guildford, UK) from 2-fold dilution series comprising at least 10 concentrations in duplicates."}, "[2]": {"target": "T1, CDK7/CyclinH/Mat1 (Homo sapiens, UniProt P50613)", "T1 construct": "purchased Carna Biosciences", "T1 sequence (P50613 whole entry)": "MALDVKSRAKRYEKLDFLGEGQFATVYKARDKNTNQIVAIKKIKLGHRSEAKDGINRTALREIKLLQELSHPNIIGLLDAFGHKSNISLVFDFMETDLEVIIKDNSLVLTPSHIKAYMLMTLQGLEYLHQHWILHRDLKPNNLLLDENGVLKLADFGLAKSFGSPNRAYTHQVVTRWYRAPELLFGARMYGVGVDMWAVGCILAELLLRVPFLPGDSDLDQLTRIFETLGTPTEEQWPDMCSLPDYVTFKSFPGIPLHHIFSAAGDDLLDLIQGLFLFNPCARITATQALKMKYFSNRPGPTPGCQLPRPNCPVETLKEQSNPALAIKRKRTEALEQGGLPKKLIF", "T1 sequence (P51946 whole entry partner)": "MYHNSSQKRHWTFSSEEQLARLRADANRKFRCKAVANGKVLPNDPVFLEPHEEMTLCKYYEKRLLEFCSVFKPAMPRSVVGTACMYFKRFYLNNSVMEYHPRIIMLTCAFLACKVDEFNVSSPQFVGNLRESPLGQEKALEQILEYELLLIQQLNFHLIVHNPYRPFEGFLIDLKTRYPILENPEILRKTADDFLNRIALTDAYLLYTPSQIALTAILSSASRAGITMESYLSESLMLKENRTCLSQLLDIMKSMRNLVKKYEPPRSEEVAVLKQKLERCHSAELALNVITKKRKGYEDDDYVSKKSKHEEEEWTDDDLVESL", "T1 sequence (P51948 whole entry partner)": "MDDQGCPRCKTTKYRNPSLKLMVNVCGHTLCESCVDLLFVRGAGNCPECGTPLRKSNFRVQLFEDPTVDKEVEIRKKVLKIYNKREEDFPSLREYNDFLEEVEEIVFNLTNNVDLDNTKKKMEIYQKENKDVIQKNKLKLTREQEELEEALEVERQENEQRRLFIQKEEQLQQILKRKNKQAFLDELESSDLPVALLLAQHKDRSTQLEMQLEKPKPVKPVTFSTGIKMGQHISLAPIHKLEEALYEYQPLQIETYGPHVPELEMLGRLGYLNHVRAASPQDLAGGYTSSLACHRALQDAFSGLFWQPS", "experiment": "LanthaScreen Eu Kinase Binding Assay, CDK7", "settings": "tracer 236, read-out: Affinity (Kd) CDK7", "procedure": "(§1) This protocol describes how the LanthaScreen Eu Kinase Binding Assay was performed to determine dissociation constants (Kd) of compounds of general formula (I) and CDK/Cyclin complexes. The principle behind this assay is based upon the binding and displacement of an Alexa Fluor 647-labeled tracer, which binds to the active site of kinases. Binding of the tracer to the kinase is detected using a Eu-labeled antibody. Simultaneous binding of both the tracer and antibody to the kinase gives rise to a FRET-signal. Binding of an inhibitor to the kinase competes for binding with the tracer, resulting in a loss of FRET.\n(§2) The compounds of general formula (I) summarized in Table 1 were diluted from a 10 mM DMSO stock solution 1:10 in a total volume of 15 μL DMSO. This compound predilution was then serial diluted 1:3 over 8 steps in DMSO and briefly spun down. Each compound solution was now diluted 1:33.33 in kinase buffer (HEPES: 20 mM, pH: 8.0; MgCl2: 10 mM; DTT: 1 mM; Brij-35: 0.01%), mixed thoroughly and spun down. For every sample, 5 μL of the diluted compound were mixed with 5 μL tracer working solution (e.g. 60 nM tracer 236 in kinase buffer for CDK2/Cyclin A) and 5 μL CDK/Cyclin/Anti-GST-AB-working solution (e.g. 15 nM CDK2/Cyclin A, 1:250 dilution of Anti-GST-AB in kinase buffer) in a well of a small volume 384 well plate (Corning Incorporated, Corning, N.Y., USA; order no. 3673). […] For positive controls, in each well 5 μL of DMSO working solution (3% DMSO diluted in kinase buffer) was mixed with 5 μL CDK/Cyclin/Anti-GST-AB-working solution: (e.g. 15 nM CDK2/Cyclin A, 1:250 dilution of Anti-GST-AB in kinase buffer) and 5 μL Tracer working solution (e.g. 60 nM Tracer 236 in kinase buffer for CDK2/Cyclin A). Positive and negative controls were calculated from at least 8 different sample wells. The 384 well plates were mixed in a Teleshaker plate mixer (Beckman Coulter, Brea, Calif., USA) at 2000 rpm for 40 sec, and incubated for 1 h at room temperature before reading. The FRET signal was measured at 340 nm excitation, 665 nm and 615 nm emission (for the kinase tracer and LanthaScreen Eu-AB, respectively) with an Envision spectrophotometer (Perkin Elmer, Waltham, Mass., USA) with 50 μs delay and 300 μs integration time. Kd values were determined from the sigmoidal dose response curves with the software Quattro Workflow (Quattro GmbH, Munich, Germany)."}, "[3]": {"target": "T2, CDK9/Cyclin K (Homo sapiens, UniProt P50750)", "T2 construct": "purchased Invitrogen", "T2 sequence (P50750 whole entry)": "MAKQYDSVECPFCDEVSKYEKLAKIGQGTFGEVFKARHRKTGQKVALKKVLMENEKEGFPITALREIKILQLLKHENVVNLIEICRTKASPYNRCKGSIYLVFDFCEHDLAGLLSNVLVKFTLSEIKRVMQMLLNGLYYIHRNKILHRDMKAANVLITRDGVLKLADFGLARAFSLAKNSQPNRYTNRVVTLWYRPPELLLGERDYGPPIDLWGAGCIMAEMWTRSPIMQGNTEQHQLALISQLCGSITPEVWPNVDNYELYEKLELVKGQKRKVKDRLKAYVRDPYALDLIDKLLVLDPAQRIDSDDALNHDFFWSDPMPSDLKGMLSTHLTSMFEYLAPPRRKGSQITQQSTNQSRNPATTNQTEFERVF", "T2 sequence (O75909 whole entry partner)": "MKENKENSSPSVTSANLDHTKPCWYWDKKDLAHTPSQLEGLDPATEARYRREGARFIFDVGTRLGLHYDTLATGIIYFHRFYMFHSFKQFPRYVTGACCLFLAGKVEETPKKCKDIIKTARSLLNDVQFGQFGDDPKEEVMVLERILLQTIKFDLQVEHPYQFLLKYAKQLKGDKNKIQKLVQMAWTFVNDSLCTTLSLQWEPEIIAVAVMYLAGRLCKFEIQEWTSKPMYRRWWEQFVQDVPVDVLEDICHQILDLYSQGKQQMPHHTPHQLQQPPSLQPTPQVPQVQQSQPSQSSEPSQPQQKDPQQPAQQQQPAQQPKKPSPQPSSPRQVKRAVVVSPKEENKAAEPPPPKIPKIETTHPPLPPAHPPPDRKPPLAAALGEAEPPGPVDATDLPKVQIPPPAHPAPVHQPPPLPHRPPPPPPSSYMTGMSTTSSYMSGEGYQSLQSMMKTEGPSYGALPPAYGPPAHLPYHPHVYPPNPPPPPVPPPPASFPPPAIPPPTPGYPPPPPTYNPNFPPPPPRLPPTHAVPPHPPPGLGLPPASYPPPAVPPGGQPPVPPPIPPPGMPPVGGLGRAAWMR", "experiment": "LanthaScreen Eu Kinase Binding Assay, CDK9/Cyclin K", "settings": "tracer 236, read-out: Affinity (Kd) CDK9/Cyclin K", "procedure": "as §1, §2"}, "[4]": {"target": "T3, CDK8/Cyclin C (Homo sapiens, UniProt P49336)", "T3 construct": "purchased Invitrogen", "T3 sequence (P49336 whole entry)": "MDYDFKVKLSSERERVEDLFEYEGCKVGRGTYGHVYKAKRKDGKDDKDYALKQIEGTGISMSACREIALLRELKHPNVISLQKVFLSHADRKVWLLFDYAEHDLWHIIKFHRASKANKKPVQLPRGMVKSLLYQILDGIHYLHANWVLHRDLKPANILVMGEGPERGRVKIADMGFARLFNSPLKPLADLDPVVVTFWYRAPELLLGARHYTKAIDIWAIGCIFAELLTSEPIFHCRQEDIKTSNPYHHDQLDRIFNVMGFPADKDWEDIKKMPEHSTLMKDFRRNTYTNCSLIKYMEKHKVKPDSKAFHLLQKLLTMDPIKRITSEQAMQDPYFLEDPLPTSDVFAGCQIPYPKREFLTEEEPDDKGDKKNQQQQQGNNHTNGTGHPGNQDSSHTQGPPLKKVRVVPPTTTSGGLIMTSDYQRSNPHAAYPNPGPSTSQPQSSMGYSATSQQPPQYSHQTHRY", "T3 sequence (P24863 whole entry partner)": "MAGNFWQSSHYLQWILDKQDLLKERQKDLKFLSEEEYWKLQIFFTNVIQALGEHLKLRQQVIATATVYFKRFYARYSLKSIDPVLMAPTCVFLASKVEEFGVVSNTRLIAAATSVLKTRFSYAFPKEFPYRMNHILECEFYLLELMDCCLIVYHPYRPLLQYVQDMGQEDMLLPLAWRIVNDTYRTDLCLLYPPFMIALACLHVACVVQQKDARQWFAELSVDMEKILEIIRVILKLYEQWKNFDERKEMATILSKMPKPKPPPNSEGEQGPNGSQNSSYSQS", "experiment": "LanthaScreen Eu Kinase Binding Assay, CDK8", "settings": "tracer 236, read-out: Affinity (Kd) CDK8", "procedure": "as §1, §2"}, "[5]": {"target": "T4, CDK9/Cyclin T1 (Homo sapiens, UniProt P50750)", "T4 construct": "purchased Invitrogen", "T4 sequence (P50750 whole entry)": "as the sequence (P50750 whole entry) above", "T4 sequence (O60563 whole entry partner)": "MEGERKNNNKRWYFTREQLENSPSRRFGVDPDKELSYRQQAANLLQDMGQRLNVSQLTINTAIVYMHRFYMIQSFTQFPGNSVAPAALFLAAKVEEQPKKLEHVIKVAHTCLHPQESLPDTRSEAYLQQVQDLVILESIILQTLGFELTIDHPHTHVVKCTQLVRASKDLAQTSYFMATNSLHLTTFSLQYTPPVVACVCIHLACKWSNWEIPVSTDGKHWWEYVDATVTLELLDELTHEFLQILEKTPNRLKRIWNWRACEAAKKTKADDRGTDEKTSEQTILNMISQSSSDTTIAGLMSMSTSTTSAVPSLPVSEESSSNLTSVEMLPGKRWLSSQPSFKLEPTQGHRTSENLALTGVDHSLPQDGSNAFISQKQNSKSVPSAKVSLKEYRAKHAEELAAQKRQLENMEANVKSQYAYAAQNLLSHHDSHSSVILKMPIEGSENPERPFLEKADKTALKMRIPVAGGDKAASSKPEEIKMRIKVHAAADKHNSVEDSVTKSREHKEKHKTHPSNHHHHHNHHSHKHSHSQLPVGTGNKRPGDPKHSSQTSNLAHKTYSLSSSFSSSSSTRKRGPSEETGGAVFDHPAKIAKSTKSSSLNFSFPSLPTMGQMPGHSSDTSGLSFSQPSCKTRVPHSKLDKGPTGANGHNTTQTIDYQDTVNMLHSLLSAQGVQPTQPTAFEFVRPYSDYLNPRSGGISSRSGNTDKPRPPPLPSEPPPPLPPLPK", "experiment": "LanthaScreen Eu Kinase Binding Assay, CDK9/Cyclin T1", "settings": "tracer 236, read-out: Affinity (Kd) CDK9/Cyclin T1", "procedure": "as §1, §2"}, "[6]": {"tested_on": "LPS-induced TNF alpha release in PBMCs", "experiment": "TNF alpha release assay", "assay_type": "cell-based", "settings": "Homo sapiens, PBMC, 6 h, 1 μg/mL LPS", "procedure": "Freshly isolated peripheral blood mononuclear cells (PBMCs) were seeded in 96-well cell culture plates with 200,000 cells in 100 μl cell culture medium (DMEM cell culture medium+glutamine from PAN Biotech GmbH, Aidenbach, Germany) supplemented with 10% fetal calf serum (PAA Laboratories GmbH, Pasching, Austria) per well and incubated overnight at 37° C., 5% CO2. To each well, 100 μL cell culture medium with 2× concentrated test compounds diluted from 10 mM DMSO stocks, or 100 μL DMEM with 0.4% DMSO for control wells, was added. The compounds of general formula (I) summarized in Table 6 were used in this assay. After incubation for 1 h at 37° C., 5% CO2, cells were stimulated with 1 μg/mL LPS (Lipopolysaccharides, Sigma, catalog #L4391-1MG; 1 mg/ml stock solution), or left untreated for negative controls, and plates were incubated for 6 h at 37° C./5% CO2. The cell culture plates were centrifuged at 2000 rpm for 5 minutes, and supernatants were transferred to fresh 96-well polypropylene plates. 25 µL of supernatants were transferred into 96-well-plates of the human TNF alpha-tissue culture kit (Meso Scale Discovery, Gaithersburg, Md., USA), and manufacturer's instructions were followed for analysis of TNF alpha levels. Chemoluminescence was measured in the Mesoscale Sector Imager, and EC50 values were calculated with the software Excel Fit (IDBS, Guildford, UK) from 2-fold dilution series comprising at least 6 concentrations in duplicates."}, "[7]": {"target": "T5, CDK2/CyclinA (Homo sapiens, UniProt P24941)", "T5 construct": "purchased Proqinase", "experiment": "LanthaScreen Eu Kinase Binding Assay, CDK2", "settings": "tracer 236, read-out: Affinity (Kd) CDK2", "procedure": "as §1, §2"}}}
{"smiles": "COc1ccccc1-c1ncnc(Nc2cccc(NC(=O)Nc3ccccc3)c2)n1", "note": "[Compound N1, N-[3-((4-(2-Methoxyphenyl)-1,3,5-triazin-2-yl)amino)phenyl]-N′-phenyl-urea]", "values": [{"measurement": "IC50", "setting": "[1]", "value": 18.4, "unit": "µM"}, {"measurement": "Kd", "setting": "[2]", "value": "> 30", "unit": "µM"}, {"measurement": "Kd", "setting": "[3]", "value": 0.159, "unit": "µM"}, {"measurement": "Kd", "setting": "[4]", "value": "> 10", "unit": "µM"}, {"measurement": "Kd", "setting": "[5]", "value": 0.478, "unit": "µM"}, {"measurement": "IC50", "setting": "[6]", "value": 6.71, "unit": "µM"}, {"measurement": "Kd", "setting": "[7]", "value": 2.36, "unit": "µM"}]}
